{"source": "patent US11912676B1", "about": "“N'-[(4-chlorobenzoyl)oxy]-1,3-benzothiazole-2-carboximidamide as an antitumor and antimicrobial compound” (KING FAISAL UNIVERSITY, priority 2023, dated 2024)", "key": {"[1]": {"test_system": "human prostate cancer cells (PC3)", "assay": "Cytotoxicity by SRB assay, PC3 cells", "format": "cell-based", "details": "0.01 μM to 100 μM, 72 h", "procedure": "(§1) The human prostate cancer cells (PC3) and human osteosarcoma cells (MG-63) were obtained from Nawah Scientific Inc. (Mokatam, Cairo, Egypt) and cultured in DMEM (Dulbecco's modified eagle's medium), Gibco, USA, supplemented with fetal bovine serum (FBS) at a concentration of 10% and 100 U/mL of penicillin and streptomycin (PS). The Cells were incubated at 37° C. in a humidified environment that contained 5% CO2. Cells were seeded in 96-well plates as aliquots of 100 μL cell suspension and incubated in a complete media for 24 h. afterward, cells were treated with N′-[(4-chlorobenzoyl)oxy]-1,3-benzothiazole-2-carboximidamide at diverse concentrations ranging from 0.01 μM to 100 μM for 72 h. Then, cells were fixed at 4° C. for one hour with 150 μL of 10% trichloroacetic acid (TCA). After washing the cells five times with distilled water, 70 μL of sulforhodamine (SRB) solution (0.4% w/v) was added and incubated for 10 min at room temperature in a dark place. […] Then, 150 μL of Tris pH 10.5 (10 mM) was added, and the absorbance was measured at 540 nm using a BMG LABTECH®--FLUOstar Omega microplate reader (Ortenberg, Germany). Half maximal inhibitory concentrations (IC50) values were calculated for each experiment using GraphPad Prism 6 software. […] The inhibition was calculated using the following equation: Inhibition %=100−Average Viability"}, "[2]": {"test_system": "human osteosarcoma cells (MG-63)", "assay": "Cytotoxicity by SRB assay, MG-63 cells", "format": "cell-based", "details": "0.01 μM to 100 μM, 72 h", "procedure": "as §1"}}, "data": [{"smiles": "N/C(Cc1nc2ccccc2s1)=N\\OC(=O)c1ccc(Cl)cc1", "values": [{"measurement": "melting point", "value": "160 to 162", "unit": "°C"}, {"measurement": "antiproliferative activity against PC3 cells", "setting": "[1]", "value": "excellent antiproliferative activities"}, {"measurement": "antiproliferative activity against MG-63 cells", "setting": "[2]", "value": "excellent antiproliferative activities"}]}]}
